Like-named read-outs stand apart in the source and are kept apart here.
Biological target: T1, full length AKT E17K (Homo sapiens, UniProt P31749, E17K)
T1 construct: host or cells: HEK-293 (ATCC CRL-1573)
Experiment: NanoBRET Target Engagement (TE) Intracellular Kinase Assay
Type: cell-based
Description: The NanoBRET™ Target Engagement (TE) Intracellular Kinase Assays are based on the NanoBRET™ System (Promega Corporation), an energy transfer technique designed to measure molecular proximity in living cells. The NanoBRET™ TE Assays measure the apparent affinity of test compounds by competitive displacement of the NanoBRET™ tracer compound, which is a cell permeable molecule engineered to be reversibly bound to a NanoLuc® luciferase-kinase fusion expressed in cells. For compound screening, when a test compound binds to the selected kinase, the BRET signal is attenuated. […] All cells were evaluated for viability prior to transfection and optimization of the transfection was done prior to experimentation. […] Following transfection, cells were washed and resuspended in Opti-MEM. NanoBRET assays were performed in white, 384-well plates (Corning) at a density of 2×10^5 cells/well. All example compounds were prepared as concentrated stock solutions in DMSO (Sigma-Aldrich). Compounds are dissolved in DMSO to make 10 mM stock solution. […] A Labcyte ECHO 550 compound dispenser was used to facilitate compound transfer directly to cells. Cells were equilibrated for 2 hr with energy transfer probes and example compound prior to BRET measurements. […] For target engagement analysis, the energy transfer probes were added to the cells at concentrations optimized for the target in question (AKT E17K). Following compound incubation, NanoBRET NanoGlo Substrate (Promega Cat #Ni57D) and Extracellular Nanoluc Inhibitor (Promega Cat #N235C) was added according to the manufacturer's recommended protocol, and luminescence was measured on Envision Reader (Perkin Elmer) Multimode Luminometer equipped with 450 nm BPfilter (donor) and 600 nm LPfilter (acceptor), using 0.5 s integration time. Milli-BRET units (mBU) are calculated by multiplying the raw BRET values by 1000. Apparent tracer affinity values (EC50) were determined using the sigmoidal dose-response (variable slope). Competitive displacement data were then plotted and data were fit to determine the EC50 value for each example compound.

[1] = read-out: NanoBRET AKT1E17K EC50, HEK-293 cells transfected with NanoLuc-AKT E17K, competitive displacement of NanoBRET tracer, 2 hr equilibration, 10-point 3-fold dilution

T1 sequence (P31749 whole entry E17K): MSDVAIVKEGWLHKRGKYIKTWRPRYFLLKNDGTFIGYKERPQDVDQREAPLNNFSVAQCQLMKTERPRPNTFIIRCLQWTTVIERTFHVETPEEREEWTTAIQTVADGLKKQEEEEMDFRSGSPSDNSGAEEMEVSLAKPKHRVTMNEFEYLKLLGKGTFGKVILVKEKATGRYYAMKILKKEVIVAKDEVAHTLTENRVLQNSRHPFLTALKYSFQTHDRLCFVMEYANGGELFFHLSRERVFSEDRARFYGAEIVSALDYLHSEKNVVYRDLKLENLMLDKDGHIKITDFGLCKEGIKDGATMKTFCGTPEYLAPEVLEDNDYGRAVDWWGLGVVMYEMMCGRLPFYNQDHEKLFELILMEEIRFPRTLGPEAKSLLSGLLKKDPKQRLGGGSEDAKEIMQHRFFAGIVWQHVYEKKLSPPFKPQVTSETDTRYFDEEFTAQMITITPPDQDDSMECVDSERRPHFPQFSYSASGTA

SMILES | EC50 | EC50 [1]
COc1c(N2CC3(CCN(Cc4ccc(-n5c(-c6cccnc6N)nc6ccc(-c7ccccc7)nc65)cc4)C3)C2)c(=O)c1=O [Example 55, 3-(6-(4-(2-(2-Aminopyridin-3-yl)-5-phenyl-3H-imidazo[4,5-b]pyridin-3-yl)benzyl)-2,6-diazaspiro[3.4]octan-2-yl)-4-methoxycyclobut-3-ene-1,2-dione] |  | < 0.015 µM
CCOc1c(N2CCC3(CC2)CN(Cc2ccc(-n4c(-c5cccnc5N)nc5ccc(-c6ccccc6)nc54)cc2)C3)c(=O)c1=O [Example 59, 3-(2-(4-(2-(2-Aminopyridin-3-yl)-5-phenyl-3H-imidazo[4,5-b]pyridin-3-yl)benzyl)-2,7-diazaspiro[3.5]nonan-7-yl)-4-ethoxycyclobut-3-ene-1,2-dione] | 0.015 to 0.06 µM | 
COc1c(N2CCN(Cc3ccc(-n4c(-c5cccnc5N)nc5ccc(-c6ccccc6)nc54)cc3)C[C@@H]2CO)c(=O)c1=O [Example 79, (R)-3-(4-(4-(2-(2-aminopyridin-3-yl)-5-phenyl-3H-imidazo[4,5-b]pyridin-3-yl)benzyl)-2-(hydroxymethyl)piperazin-1-yl)-4-methoxycyclobut-3-ene-1,2-dione] | 0.06 to 0.6 µM | 
Nc1ncccc1-c1nc2ccc(-c3ccccc3)nc2n1-c1ccc(CN2CCC(N3CCCSc4c3c(=O)c4=O)CC2)cc1 [Example 85, 6-(1-(4-(2-(2-aminopyridin-3-yl)-5-phenyl-3H-imidazo[4,5-b]pyridin-3-yl)benzyl)piperidin-4-yl)-2-thia-6-azabicyclo[5.2.0]non-1(7)-ene-8,9-dione] | 0.06 to 0.6 µM | 
COc1c(N2CCC3(CCN(Cc4ccc(-n5c(-c6cccnc6N)nc6ccc(-c7ccccc7)nc65)cc4)CC3)CC2)c(=O)c1=O [Example 99, 3-(9-(4-(2-(2-aminopyridin-3-yl)-5-phenyl-3H-imidazo[4,5-b]pyridin-3-yl)benzyl)-3,9-diazaspiro[5.5]undecan-3-yl)-4-methoxycyclobut-3-ene-1,2-dione] | 0.015 to 0.06 µM | 
CCSc1c(N(C2CC2)C2CCN(Cc3ccc(-n4c(-c5cccnc5N)nc5ccc(-c6ccccc6)nc54)cc3)CC2)c(=O)c1=O [Example 96, 3-((1-(4-(2-(2-aminopyridin-3-yl)-5-phenyl-3H-imidazo[4,5-b]pyridin-3-yl)benzyl)piperidin-4-yl)(cyclopropyl)amino)-4-(ethylthio)cyclobut-3-ene-1,2-dione] | 0.015 to 0.06 µM | 
CCSc1c(N(C)N2CCN(Cc3ccc(-n4c(-c5cccnc5N)nc5ccc(-c6ccccc6)nc54)cc3)CC2)c(=O)c1=O [Example 97, 3-((4-(4-(2-(2-aminopyridin-3-yl)-5-phenyl-3H-imidazo[4,5-b]pyridin-3-yl)benzyl)piperazin-1-yl)(methyl)amino)-4-(ethylthio)cyclobut-3-ene-1,2-dione] |  | < 0.015 µM
CCOc1c(NC2CCN(Cc3ccc(-n4c(-c5cccnc5N)nc5ccc(-c6ccccc6)nc54)cc3)CC2)c(=O)c1=O [Example 12, 3-((1-(4-(2-(2-Aminopyridin-3-yl)-5-phenyl-3H-imidazo[4,5-b]pyridin-3-yl)benzyl)piperidin-4-yl)amino)-4-ethoxycyclobut-3-ene-1,2-dione] | 0.015 to 0.06 µM | 
COc1c(N2CCN(Cc3ccc(-n4c(-c5cccnc5N)nc5cc(-c6ccccc6)cnc54)cc3)CC2)c(=O)c1=O [Example 9, 3-(4-(4-(2-(2-Aminopyridin-3-yl)-6-phenyl-3H-imidazo[4,5-b]pyridin-3-yl)benzyl)piperazin-1-yl)-4-methoxycyclobut-3-ene-1,2-dione] | 0.06 to 0.6 µM | 
CCOc1c(N2CC3(CN(Cc4ccc(-n5c(-c6cccnc6N)nc6ccc(-c7ccccc7)nc65)cc4)C3)C2)c(=O)c1=O [Example 40, 3-(6-(4-(2-(2-Aminopyridin-3-yl)-5-phenyl-3H-imidazo[4,5-b]pyridin-3-yl)benzyl)-2,6-diazaspiro[3.3]heptan-2-yl)-4-ethoxycyclobut-3-ene-1,2-dione] |  | < 0.015 µM

Continued, values first:

EC50 | EC50 [1] | SMILES
0.015 to 0.06 µM |  | COc1c(N2CCN(Cc3ccc(-n4c(-c5cccnc5N)nc5ccc(-c6ccccc6)nc54)cc3)CC2)c(=O)c1=O [Example 21, 3-(4-(4-(2-(2-Aminopyridin-3-yl)-5-phenyl-3H-imidazo[4,5-b]pyridin-3-yl)benzyl)piperazin-1-yl)-4-methoxycyclobut-3-ene-1,2-dione]
 | < 0.015 µM | COc1c(N(C)C2CCN(C(C)c3ccc(-n4c(-c5cccnc5N)nc5ccc(-c6ccccc6)nc54)cc3)CC2)c(=O)c1=O (centres unmarked) [Example 90, 3-((1-(1-(4-(2-(2-aminopyridin-3-yl)-5-phenyl-3H-imidazo[4,5-b]pyridin-3-yl)phenyl)ethyl)piperidin-4-yl)(methyl)amino)-4-methoxycyclobut-3-ene-1,2-dione]
 | < 0.015 µM | COc1c(NC2CN(Cc3ccc(-n4c(-c5cccnc5N)nc5ccc(-c6ccccc6)nc54)cc3)C2)c(=O)c1=O [Example 51, 3-((1-(4-(2-(2-Aminopyridin-3-yl)-5-phenyl-3H-imidazo[4,5-b]pyridin-3-yl)benzyl)azetidin-3-yl)amino)-4-methoxycyclobut-3-ene-1,2-dione]
0.015 to 0.06 µM |  | COc1c(N2CCC(NCc3ccc(-n4c(-c5cccnc5N)nc5ccc(-c6ccccc6)nc54)cc3)CC2)c(=O)c1=O [Example 77, 3-(4-((4-(2-(2-aminopyridin-3-yl)-5-phenyl-3H-imidazo[4,5-b]pyridin-3-yl)benzyl)amino)piperidin-1-yl)-4-methoxycyclobut-3-ene-1,2-dione]
0.015 to 0.06 µM |  | CC(C)Oc1c(NC2CCN(Cc3ccc(-n4c(-c5cccnc5N)nc5ccc(-c6ccccc6)nc54)cc3)CC2)c(=O)c1=O [Example 11, 3-((1-(4-(2-(2-aminopyridin-3-yl)-5-phenyl-3H-imidazo[4,5-b]pyridin-3-yl)benzyl)piperidin-4-yl)amino)-4-isopropoxycyclobut-3-ene-1,2-dione]
0.06 to 0.6 µM |  | COc1c(N2[C@H](C)CN(Cc3ccc(-n4c(-c5cccnc5N)nc5ccc(-c6ccccc6)nc54)cc3)C[C@@H]2C)c(=O)c1=O [Example 68, 3-((2S,6R)-4-(4-(2-(2-aminopyridin-3-yl)-5-phenyl-3H-imidazo[4,5-b]pyridin-3-yl)benzyl)-2,6-dimethylpiperazin-1-yl)-4-methoxycyclobut-3-ene-1,2-dione]
 | < 0.015 µM | CSc1c(N(C)C2CCN(Cc3ccc(-n4c(-c5cccnc5N)nc5ccc(-c6ccccc6)nc54)cc3)CC2)c(=O)c1=O [Example 47, 3-((1-(4-(2-(2-aminopyridin-3-yl)-5-phenyl-3H-imidazo[4,5-b]pyridin-3-yl)benzyl)piperidin-4-yl)(methyl)amino)-4-(methylthio)cyclobut-3-ene-1,2-dione]
 | < 0.015 µM | COc1c(N2CCC(OCc3ccc(-n4c(-c5cccnc5N)nc5ccc(-c6ccccc6)nc54)cc3)CC2)c(=O)c1=O [Example 78, 3-(4-((4-(2-(2-aminopyridin-3-yl)-5-phenyl-3H-imidazo[4,5-b]pyridin-3-yl)benzyl)oxy)piperidin-1-yl)-4-methoxycyclobut-3-ene-1,2-dione]
 | < 0.015 µM | CCN(c1c(SC)c(=O)c1=O)C1CCN(Cc2ccc(-n3c(-c4cccnc4N)nc4ccc(-c5ccccc5)nc43)cc2)CC1 [Example 92, 3-((1-(4-(2-(2-aminopyridin-3-yl)-5-phenyl-3H-imidazo[4,5-b]pyridin-3-yl)benzyl)piperidin-4-yl)(ethyl)amino)-4-(methylthio)cyclobut-3-ene-1,2-dione]
 | < 0.015 µM | CCSc1c(N(C)C2CCN(Cc3ccc(-n4c(-c5cccnc5N)nc5ccc(-c6ccccc6)nc54)cc3)CC2)c(=O)c1=O [Example 49, 3-((1-(4-(2-(2-Aminopyridin-3-yl)-5-phenyl-3H-imidazo[4,5-b]pyridin-3-yl)benzyl)piperidin-4-yl)(methyl)amino)-4-(ethylthio)cyclobut-3-ene-1,2-dione]
0.06 to 0.6 µM |  | COc1c(NC2CCCCN(Cc3ccc(-n4c(-c5cccnc5N)nc5ccc(-c6ccccc6)nc54)cc3)C2)c(=O)c1=O (centres unmarked) [Example 74, 3-((1-(4-(2-(2-aminopyridin-3-yl)-5-phenyl-3H-imidazo[4,5-b]pyridin-3-yl)benzyl)azepan-3-yl)amino)-4-methoxycyclobut-3-ene-1,2-dione]
> 0.6 µM |  | COc1c(NC2CCN(C(=O)c3ccc(-n4c(-c5cccnc5N)nc5ccc(-c6ccccc6)nc54)cc3)CC2)c(=O)c1=O [Example 28, 3-((1-(4-(2-(2-Aminopyridin-3-yl)-5-phenyl-3H-imidazo[4,5-b]pyridin-3-yl)benzoyl)piperidin-4-yl)amino)-4-methoxycyclobut-3-ene-1,2-dione]
 | < 0.015 µM | COc1c(N(C)[C@H]2CCN(Cc3ccc(-n4c(-c5cccnc5N)nc5ccc(-c6ccccc6)nc54)cc3)C2)c(=O)c1=O [Example 81, (S)-3-((1-(4-(2-(2-aminopyridin-3-yl)-5-phenyl-3H-imidazo[4,5-b]pyridin-3-yl)benzyl)pyrrolidin-3-yl)(methyl)amino)-4-methoxycyclobut-3-ene-1,2-dione]

Reference: patent publication US20260365646A1, “AKT1 MODULATORS” (Alterome Therapeutics, Inc., priority 2022, published 2026)
